# Results published in US20240090503A1, “FUNGICIDAL OXADIAZOLES AND THEIR MIXTURES” (FMC CORPORATION, priority 2020, published 2024).
# Marks after values point to notes of the source that are not given here.
# Tests used:
# Format in all cases: in vivo
# [1] = system: Phakopsora pachyrhizi (the causal agent of Asian soybean rust); assay: Test A: preventive spray on soybean seedlings, Asian soybean rust, visual disease rating; conditions: soybean seedlings
# In short: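 Preventive test: soybean seedlings received a run-off spray of compound suspended at the set ppm in 50/50 acetone/water plus 250 ppm PEG400, and one day later a P. pachyrhizi spore inoculum. Visual scoring (0 none to 100 full disease control) followed 24 h saturated incubation and 8 days' growth chamber, both at 22° C.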
# [2] = system: Zymoseptoria tritici (the causal agent of wheat leaf blotch); assay: Test B: preventive spray on wheat seedlings, wheat leaf blotch, visual disease rating; conditions: wheat seedlings
# Text: General protocol for preparing test suspensions for Tests A-D: the test compounds were first dissolved in acetone in an amount equal to 3% of the final volume and then suspended at the desired concentration (in ppm) in acetone and purified water (50/50 mix by volume) containing 250 ppm of the surfactant PEG400 (polyhydric alcohol esters). The resulting test suspensions were then used in Tests A-D.
# The test suspension was sprayed to the point of run-off on wheat seedlings. The following day the seedlings were inoculated with a spore suspension of Zymoseptoria tritici (the causal agent of wheat leaf blotch) and incubated in a saturated atmosphere at 24° C. for 48 h, and then moved to a growth chamber at 20° C. for 17 days, after which time visual disease ratings were made.
# The test results for Tests A-C presented in Table A below for compounds of Formula 1 illustrate the fungicidal activity of component (a) contributing to the plant disease control utility of compositions comprising component (a) in combination with component (b) according to the present invention. In the Table, a rating of 100 indicates 100% disease control and a rating of 0 indicates no disease control (relative to the controls). A dash (-) indicates the compound was not tested. The test suspensions were sprayed at the concentration listed in the column “Rate in ppm”, unless otherwise indicated. An asterisk “*” next to the rating indicates a 250 ppm test suspension was used, a double asterisk “**” next to the rating indicates a 100 ppm test suspension was used, and a triple asterisk “***” next to the rating indicates a 50 ppm test suspension was used.
# [3] = system: Puccinia recondita f. sp. tritici (the causal agent of wheat leaf rust); assay: Test C: preventive spray on wheat seedlings, wheat leaf rust, visual disease rating; conditions: wheat seedlings
# In short: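 Wheat seedlings sprayed to run-off with compound in acetone/water (50/50) with 250 ppm PEG400, then inoculated with spores the following day. After 24 h saturated humidity at 20° C. and 6 days in growth chamber at 20° C., disease rated visually as % control relative to untreated controls.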
# [4] = test suspension 10 ppm, 100 = 100% disease control, 0 = no control
# [5] = 10 ppm test suspension, 100 = 100% disease control, 0 = no control
# [6] = 250 ppm test suspension, 100 = 100% disease control
# [7] = test suspension 100 ppm (** next to rating)
smiles,measurement,setting,value
"CN(C)C(=O)C1=NOC(Cc2ccc(-c3noc(C(F)(F)F)n3)cc2)C1 (stereo not drawn) [Compound 12, 4,5-dihydro-N,N-dimethyl-5-[[4-[5-(trifluoromethyl)-1,2,4-oxadiazol-3-yl]phenyl]methyl]-3-isoxazolecarboxamide]",pest or weed control at 255 µg/mL,"[1]; Phakopsora pachyrhizi, 216 h, test suspension 255 ppm",100%
same,pest or weed control at 255 µg/mL,"[2]; Zymoseptoria tritici, 456 h, test suspension 255 ppm",98%
same,pest or weed control at 255 µg/mL,"[3]; Puccinia recondita, 168 h, test suspension 255 ppm",100%
O=C(NC1CSC1)c1coc(Cc2ccc(-c3noc(C(F)(F)F)n3)cc2)n1 [compound 329],Test A disease control rating,[1]; [4],100%
same,Test B disease control rating,[2]; test suspension 250 ppm,98* %
same,Test C disease control rating,[3]; test suspension 10 ppm,98%
COC(=O)c1coc(Cc2ccc(-c3noc(C(F)(F)F)n3)cc2)c1 [compound 456],Test A disease control rating,[1]; [5],100%
same,Test B disease control rating,[2]; [6],65* %
same,Test C disease control rating,[3]; [5],68%
Cc1noc(C)c1COc1ccc(-c2noc(C(F)(F)F)n2)cc1 [compound 338],Test A disease control rating,[1]; [4],99%
same,Test B disease control rating,[2]; test suspension 250 ppm,10* %
same,Test C disease control rating,[3]; test suspension 10 ppm,0%
O=c1oc2ccccc2n1Cc1ccc(-c2noc(C(F)(F)F)n2)cc1 [compound 118],Test A disease control rating,[1]; test suspension 250 ppm,100%
same,Test B disease control rating,[2]; test suspension 250 ppm,0%
same,Test C disease control rating,[3]; test suspension 250 ppm,98%
C=C(C)COC(=O)c1cnn(Cc2ccc(-c3noc(C(F)(F)F)n3)cc2)c1 [compound 170],Test A disease control rating,[1]; [4],100%
same,Test B disease control rating,[2]; [7],97** %
same,Test C disease control rating,[3]; test suspension 10 ppm,100%
O=[N+]([O-])c1ccc2c(cnn2Cc2ccc(-c3noc(C(F)(F)F)n3)cc2)c1 [compound 94],Test A disease control rating,[1]; test suspension 250 ppm,100%
same,Test B disease control rating,[2]; test suspension 250 ppm,35%
same,Test C disease control rating,[3]; test suspension 250 ppm,78%
O=C(NCCn1cccn1)c1coc(Cc2ccc(-c3noc(C(F)(F)F)n3)cc2)c1 [compound 293],Test A disease control rating,[1]; [4],100%
same,Test B disease control rating,[2]; test suspension 250 ppm,91* %
same,Test C disease control rating,[3]; test suspension 10 ppm,79%
O=C(NCCn1cccn1)c1csc(Cc2ccc(-c3noc(C(F)(F)F)n3)cc2)n1 [compound 396],Test A disease control rating,[1]; [5],100%
same,Test B disease control rating,[2]; [6],28* %
same,Test C disease control rating,[3]; [5],100%
CC(C)OC(=O)c1cnn(Cc2ccc(-c3noc(C(F)(F)F)n3)cc2)c1 [compound 58],Test A disease control rating,[1]; [4],100%
same,Test B disease control rating,[2]; [7],83** %
same,Test C disease control rating,[3]; test suspension 10 ppm,100%
COCCNC(=O)c1cnn(COc2ccc(-c3noc(C(F)(F)F)n3)cc2)c1 [compound 213],Test A disease control rating,[1]; [4],100%
same,Test B disease control rating,[2]; test suspension 250 ppm,82* %
same,Test C disease control rating,[3]; test suspension 10 ppm,74%
O=C(NC1CCC(F)(F)CC1)c1coc(Cc2ccc(-c3noc(C(F)(F)F)n3)cc2)n1 [compound 395],Test A disease control rating,[1]; [5],95%
same,Test B disease control rating,[2]; [6],0* %
same,Test C disease control rating,[3]; [5],97%
FC(F)(F)c1nc(-c2ccc(Cc3ccccc3)cc2)no1 [compound 451],Test A disease control rating,[1]; [5],99%
same,Test B disease control rating,[2]; [6],8* %
same,Test C disease control rating,[3]; [5],0%
FC(F)(F)c1nc(-c2ccc(OCn3cncn3)cc2)no1 [Compound 337],Test A disease control rating,[1]; [4],99%
same,Test B disease control rating,[2]; test suspension 250 ppm,78* %
same,Test C disease control rating,[3]; test suspension 10 ppm,82%
O=C(O)CON=Cc1cnn(Cc2ccc(-c3noc(C(F)(F)F)n3)cc2)c1 [compound 26],Test A disease control rating,[1]; test suspension 250 ppm,100%
same,Test B disease control rating,[2]; test suspension 250 ppm,46* %
same,Test C disease control rating,[3]; test suspension 250 ppm,100%
O=S1(=O)CCCCN1Cc1ccc(-c2noc(C(F)(F)F)n2)cc1 [compound 321],Test A disease control rating,[1]; test suspension 250 ppm,100%
same,Test B disease control rating,[2]; test suspension 250 ppm,99* %
same,Test C disease control rating,[3]; test suspension 250 ppm,100%
COC(CNC(=O)c1coc(Cc2ccc(-c3noc(C(F)(F)F)n3)cc2)n1)OC [compound 278],Test A disease control rating,[1]; [4],100%
same,Test B disease control rating,[2]; test suspension 250 ppm,98* %
same,Test C disease control rating,[3]; test suspension 10 ppm,100%
O=C(NCC(F)(F)F)c1ccc(Cc2ccc(-c3noc(C(F)(F)F)n3)cc2)cc1 [compound 281],Test A disease control rating,[1]; [4],100%
same,Test B disease control rating,[2]; test suspension 250 ppm,34* %
same,Test C disease control rating,[3]; test suspension 10 ppm,95%
O=C(NC1CCOC1=O)c1coc(Cc2ccc(-c3noc(C(F)(F)F)n3)cc2)n1 (stereo not drawn) [compound 332],Test A disease control rating,[1]; [4],100%
same,Test B disease control rating,[2]; test suspension 250 ppm,99* %
same,Test C disease control rating,[3]; test suspension 10 ppm,99%
COCCNC(=O)c1csc(Cc2ccc(-c3noc(C(F)(F)F)n3)cc2)c1 [compound 287],Test A disease control rating,[1]; [4],100%
same,Test B disease control rating,[2]; test suspension 250 ppm,98* %
same,Test C disease control rating,[3]; test suspension 10 ppm,100%
N#Cc1csc(Cc2ccc(-c3noc(C(F)(F)F)n3)cc2)n1 [compound 370],Test A disease control rating,[1]; test suspension 250 ppm,100%
same,Test B disease control rating,[2]; test suspension 250 ppm,98* %
same,Test C disease control rating,[3]; test suspension 250 ppm,100%
N#CCNC(=O)c1coc(Cc2ccc(-c3noc(C(F)(F)F)n3)cc2)n1 [compound 258],Test A disease control rating,[1]; [4],100%
same,Test B disease control rating,[2]; test suspension 250 ppm,99* %
same,Test C disease control rating,[3]; test suspension 10 ppm,99%
FC(F)(F)c1nc(-c2ccc(Cn3cc4cc(Br)ccc4n3)cc2)no1 [compound 133],Test A disease control rating,[1]; test suspension 255 ppm,100%
same,Test B disease control rating,[2]; test suspension 255 ppm,59%
same,Test C disease control rating,[3]; test suspension 255 ppm,100%
CN(C)C(=O)C1=NOC(COc2cccc(-c3noc(C(F)(F)F)n3)c2)C1 (stereo not drawn) [compound 502],pest or weed control at 250 ppm,"[1]; Phakopsora pachyrhizi, 216 h, 250 ppm test suspension, 100 = 100% disease control, 0 = no control",100%
same,pest or weed control at 250 ppm,"[2]; Zymoseptoria tritici, 456 h, 250 ppm test suspension, 100 = 100% disease control",62%
same,pest or weed control at 250 ppm,"[3]; Puccinia recondita, 168 h, 250 ppm test suspension, 100 = 100% disease control, 0 = no control",100%
N#CC1(NC(=O)c2coc(Cc3ccc(-c4noc(C(F)(F)F)n4)cc3)n2)CC1 [compound 231],Test A disease control rating,[1]; [4],100%
same,Test B disease control rating,[2]; test suspension 250 ppm,95* %
same,Test C disease control rating,[3]; test suspension 10 ppm,97%
O=C1CCN(Cc2ccc(-c3noc(C(F)(F)F)n3)cc2)CC1 [compound 150],Test A disease control rating,[1]; test suspension 255 ppm,100%
same,Test B disease control rating,[2]; test suspension 255 ppm,19%
same,Test C disease control rating,[3]; test suspension 255 ppm,100%
COC(=O)c1ccc(CCn2cc(-c3noc(C(F)(F)F)n3)cn2)cc1 [compound 310],Test A disease control rating,[1]; test suspension 50 ppm,0%
same,Test B disease control rating,[2]; test suspension 250 ppm,0* %
same,Test C disease control rating,[3]; test suspension 50 ppm,0%
O=C(OCC1CC1)c1cnn(COc2ccc(-c3noc(C(F)(F)F)n3)cc2)c1 [compound 216],Test A disease control rating,[1]; [4],100%
same,Test B disease control rating,[2]; test suspension 250 ppm,9* %
same,Test C disease control rating,[3]; test suspension 10 ppm,74%
"N#CCOC(=O)c1cnn(Cc2ccc(-c3noc(C(F)(F)F)n3)cc2)c1 [Compound 57, cyanomethyl 1-[[4-[5-(trifluoromethyl)-1,2,4-oxadiazol-3-yl]phenyl]methyl]-1H-pyrazole-4-carboxylate]",pest or weed control at 10 µg/mL,"[1]; Phakopsora pachyrhizi, 216 h, test suspension 10 ppm, 100 = 100% disease control, 0 = no control, read-out: Test A disease control rating",100%
same,pest or weed control at 100 µg/mL,"[2]; Zymoseptoria tritici, 456 h, test suspension 100 ppm (** next to rating), read-out: Test B disease control rating",99%
same,pest or weed control at 10 µg/mL,"[3]; Puccinia recondita, 168 h, test suspension 10 ppm, read-out: Test C disease control rating",100%
OC(c1ccc(-c2noc(C(F)(F)F)n2)cc1)c1cccc(F)c1 (stereo not drawn) [compound 498],Test A disease control rating,[1]; [5],100%
same,Test B disease control rating,[2]; [6],43* %
same,Test C disease control rating,[3]; [5],0%
COC(=O)c1nn(Cc2ccc(-c3noc(C(F)(F)F)n3)cc2)c2ccccc12 [compound 134],Test A disease control rating,[1]; test suspension 255 ppm,100%
same,Test B disease control rating,[2]; test suspension 255 ppm,0%
same,Test C disease control rating,[3]; test suspension 255 ppm,80%
CCOC(=O)c1cnn(CCn2cc(-c3noc(C(F)(F)F)n3)cn2)c1 [compound 307],Test A disease control rating,[1]; test suspension 50 ppm,0%
same,Test B disease control rating,[2]; test suspension 250 ppm,0* %
same,Test C disease control rating,[3]; test suspension 50 ppm,0%
O=C(NCC=C(Cl)Cl)c1coc(Cc2ccc(-c3noc(C(F)(F)F)n3)cc2)n1 [compound 399],Test A disease control rating,[1]; [5],100%
same,Test B disease control rating,[2]; [6],10* %
same,Test C disease control rating,[3]; [5],99%
"N#Cc1cnn(Cc2ccc(-c3noc(C(F)(F)F)n3)cc2)c1 [Compound 95, 1-[[4-[5-(trifluoromethyl)-1,2,4-oxadiazol-3-yl]phenyl]methyl]-1H-pyrazole-4-carbonitrile]",pest or weed control at 250 µg/mL,"[1]; Phakopsora pachyrhizi, 216 h, test suspension 250 ppm",100%
same,pest or weed control at 250 µg/mL,"[2]; Zymoseptoria tritici, 456 h, test suspension 250 ppm",87%
same,pest or weed control at 250 µg/mL,"[3]; Puccinia recondita, 168 h, test suspension 250 ppm",100%
